Where a SMILES comes first, the peptide text is derived from it. [ ]: non-standard residue; d: D form.
What was measured:
[1] = biological target: T1, Endothelin receptor type B (Rattus norvegicus, UniProt P21451); experiment: Displacement of [125I]ET1 from Endothelin B receptor of rat cerebellum; type: tissue-based
T1 sequence (P21451 whole entry): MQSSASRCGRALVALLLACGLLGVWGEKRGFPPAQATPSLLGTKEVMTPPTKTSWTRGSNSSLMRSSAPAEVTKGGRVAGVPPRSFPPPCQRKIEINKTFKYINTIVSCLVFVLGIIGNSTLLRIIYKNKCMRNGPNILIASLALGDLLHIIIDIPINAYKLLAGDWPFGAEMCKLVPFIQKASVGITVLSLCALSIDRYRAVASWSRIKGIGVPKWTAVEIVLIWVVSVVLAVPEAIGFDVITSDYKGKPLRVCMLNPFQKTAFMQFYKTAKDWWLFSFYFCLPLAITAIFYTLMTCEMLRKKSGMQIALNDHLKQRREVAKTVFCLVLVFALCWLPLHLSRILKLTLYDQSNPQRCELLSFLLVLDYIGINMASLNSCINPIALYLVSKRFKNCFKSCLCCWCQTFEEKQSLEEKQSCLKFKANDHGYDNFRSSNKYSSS

[2] = biological target: Endothelin A receptor (Oryctolagus cuniculus); experiment: Displacement of [125I]-ET-1 from Endothelin A receptor of rabbit renal artery vascular smooth muscle cells
[3] = species on record: Oryctolagus cuniculus; experiment: Compound was tested for its inhibition of ET-1 induced arachidonic acid accumulation in rabbit renal artery vascular smooth muscle cells; type: functional

| Structure (SMILES) | IC50 [1] | IC50 [2] | IC50 [3] |
| --- | --- | --- | --- |
| CC[C@H](C)[C@H](NC(=O)[C@H](CC(=O)O)NC(=O)[C@H](CC(C)C)NC(=O)[C@H](Cc1c[nH]cn1)NC(C)=O)C(=O)N[C@H](C(=O)N[C@@H](Cc1c[nH]c2ccccc12)C(=O)O)[C@@H](C)CC (Ac-HLDIIW-OH) | > 50000 nM | – | – |
| CC[C@H](C)[C@H](NC(=O)[C@H](CC(=O)O)NC(=O)[C@@H](Cc1ccccc1)NC(C)=O)C(=O)N[C@H](C(=O)N[C@@H](Cc1c[nH]c2ccccc12)C(=O)O)[C@@H](C)CC (Ac-[dF]DIIW-OH) | – | 9100 nM | – |
| CC[C@H](C)[C@H](NC(=O)[C@H](CC(=O)O)NC(=O)[C@H](CCC(=O)O)NC(=O)[C@@H](Cc1ccccc1)NC(C)=O)C(=O)N[C@H](C(=O)N[C@@H](Cc1c[nH]c2ccccc12)C(=O)O)[C@@H](C)CC (Ac-[dF]EDIIW-OH) | – | – | 600 nM |
| CC[C@H](C)[C@H](NC(=O)[C@H](CC(=O)O)NC(=O)[C@H](Cc1ccccc1)NC(=O)[C@@H](Cc1ccccc1)NC(C)=O)C(=O)N[C@H](C(=O)N[C@@H](Cc1c[nH]c2ccccc12)C(=O)O)[C@@H](C)CC (Ac-[dF]FDIIW-OH) | 50 nM | – | – |
| CC[C@H](C)[C@H](NC(=O)[C@H](CC(=O)O)NC(=O)[C@H](CC(C)C)NC(=O)[C@@H](Cc1ccccc1)NC(C)=O)C(=O)N[C@H](C(=O)N[C@@H](Cc1c[nH]c2ccccc12)C(=O)O)[C@@H](C)CC (Ac-[dF]LDIIW-OH) | 140 nM | – | – |
| CC[C@H](C)[C@H](NC(=O)[C@H](CC(=O)O)NC(=O)[C@@H](Cc1ccccc1)NC(=O)[C@@H](Cc1ccccc1)NC(C)=O)C(=O)N[C@H](C(=O)N[C@@H](Cc1c[nH]c2ccccc12)C(=O)O)[C@@H](C)CC (Ac-[dF][dF]DIIW-OH) | 30 nM | – | 1600 nM |

— ChEMBL document CHEMBL1127199, “Design of C-terminal peptide antagonists of endothelin: structure-activity relationships of ET-[1621, D-His16]” (Bioorg Med Chem Lett, 1993)
